Results: patent US10155807B2, “Treating alcohol-mediated disorders by inhibition of RGS6” (UNIVERSITY OF IOWA RESEARCH FOUNDATION, priority 2014, dated 2018)

Legend:
[1] = system: RGS6−/− mice; test: Short-term free choice alcohol consumption with daily GABABR antagonist treatment; format: in vivo; details: 12.5 mg/kg i.p. daily; 8% EtOH free choice phase
Text: RGS6 was identified as a critical negative regulator of cerebellum GABABR-regulated motor behavior (Maity et al., J Biol Chem. 2012; 287(7):4972-81). The involvement of GABABR signaling in the reduction in alcohol drinking observed in mice lacking RGS6 was investigated. […] Both the time course of GABABR-induced activation and deactivation of the mitogen activated protein kinase (MAPK) signaling cascade were pro-longed in the cortex of RGS6^−/− mice. […] To directly test the involvement of GABABR signaling in the reduction in alcohol seeking behavior seen in RGS6^−/− mice, the short-term free choice EtOH consumption paradigm was repeated with the addition of daily GABABR antagonist treatments.
Short-term alcohol consumption was measured in WT and RGS6^−/− mice essentially as previously described (Lockridge et al., Alcohol. 2012; 46(4):389-400). First, mice were individually housed for 2 days prior to the experiment. Each cage was then outfitted with two drinking bottles made from graduated serological pipettes sealed with parafilm to prevent evaporation and attached to each cage. […] Volume levels were recorded daily, tubes refilled and mice weighed. […] Alcohol (or saccharin/quinine) preference was calculated by dividing the EtOH volume consumed by the total fluid intake.

[2] = molecular target: T1, RGS6:Gαo protein:protein interaction (ppi) (Homo sapiens, UniProt P49758); test: Alpha Screen dose response, RGS6:Gαo protein:protein interaction; format: binding; details: for IC50: Alpha Screen dose response, truncated RGS6 construct, read-out: IC50 for inhibition of RGS6:Gαo ppi; for selectivity for inhibiting the RGS6:Gαo ppi over the assay (control): ppi vs assay counter-screen
T1 sequence (P49758 336-441 limits assumed): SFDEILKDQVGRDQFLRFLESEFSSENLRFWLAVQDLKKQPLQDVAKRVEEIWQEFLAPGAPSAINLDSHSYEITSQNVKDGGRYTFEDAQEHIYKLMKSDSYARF
Text: A high throughput screen based upon the protein-protein interaction between RGS6 and its cognate G protein has been developed. This is an approach used for other RGS proteins (Bodle et al. Future Med Chem 5: 995-1007, 2013; Mackie et al. J Biomol Screen 16: 869-877, 2011; Monroy et al. PloS one 8: e62247, 2013). Briefly, human RGS6 and G protein from E. coli is expressed and purified, which are then chemically modified to attach to microspheres. These microspheres (AlphaScreen) are then dispensed into high density experimental plates, with either 384 or 1536 wells per plate. Into each of these wells, an individual compound is dispensed, and through the use of a chemiluminescent reaction between the RGS6 and G protein coated beads, whether or not the two proteins are interacting is determined. […] A critical measure is the “Z-factor,” which indicates the ability to detect an inhibitor based on the screening signal strength, and the difference between positive and negative control values. A Z-factor between 0.5 and 1 is considered to be acceptable, and the Z-factor for the RGS6 assay is quite good, at 0.61. Using this method, a screen of 2320 compounds has been completed in 384-well plates. […] These compounds are being evaluated in testing for specificity and effectiveness in functional assays. Accessing the much larger 50,000 compound Chembridge library held by UI HTS will allow much larger coverage of “chemical space” to sample chemotypes that may represent RGS6 inhibitors with drug like properties.
As described herein, a role for RGS6 in the regulation of alcohol dependency traits, and that inhibition of this protein may act as a therapeutic intervention for the disease of alcohol addiction. As such, 2320 compounds were screened in an initial effort to discover small molecule inhibitors of the RGS6:Gαo protein:protein interaction (ppi). Alpha screen technology was used in this screen, where both proteins are conjugated to their respective donor or acceptor beads and if a ppi exists the proximity of the beads to each other results in emission of light at 520-620 nm. If a small molecule disrupts the ppi, then the intensity of light emitted is diminished.
IC50 values were obtained from dose response experiments using Alpha Screen technology. Compounds were determined to be promising based on these IC50 values, and based on the selectivity the compounds had for inhibiting the ppi versus inhibiting the assay. Since the Alpha Screen assay utilizes emitted light produced by singlet oxygen interacting with the acceptor bead as a determinant of ppi, highly colored compounds, or compounds that act as oxygen scavengers can produce false positive inhibition of the assay. […] This was not determined for UI1956.
The compounds identified in this screen represent the first generation of RGS6 inhibitors. A larger screening campaign will yield molecules that are both potent and selective for inhibiting RGS6 while containing minimal reactive substructures thus cutting down on the possible side effects that reactive molecules often produce. An additional screen will utilize the full RGS6 protein. This differs from the preliminary screen above in that a truncated RGS6 construct was used for ease of purification. […]

[3] = system: neonatal VCM isolated from WT and RGS6−/− mice; details: 1 μM, 1.5 hour pre-treatment; 200 mM EtOH 24 hours; WT vs RGS6−/− VCM
Procedure: Twenty-four hours after isolation and plating, cells were treated with 200 mM EtOH (24 hours) in the presence or absence of DPI (1 μM, 1.5 hour pre-treatment) where indicated. […] Intracellular ROS generation was estimated using the cell-permeable oxidation-sensitive probe, CM-H2DCFDA (Sigma) as described previously (Maity et al., J Biol Chem. 2011; 286(2):1409-19). Briefly, cells were harvested by centrifugation, washed three times with ice-cold PBS, re-suspended in PBS and incubated with 5 μM CM-H2DCFDA for 20 minutes at 37° C. After incubation cells were again washed and lysed in PBS with 1% Tween 20. ROS level was determined at the ratio of dichlorofluorescein excitation at 480 nm to emission at 530 nm.

[4] = system: RGS6−/− mice; test: Activity measurement in home cage after baclofen (sedation); format: in vivo; details: 10 mg/kg i.p.; immobility time over 20 min
Procedure: After drug treatment mice were placed back in their home cage and behavior videotaped for 20 min. Videos were scored for total immobility time (no discernable ambulation, grooming, social or other behaviors) by an observer blinded to mouse genotype. Data are presented as percent total time spent immobile.

Compound | IC50 [2] | selectivity for inhibiting the RGS6:Gαo ppi over the assay (control) [2] | also measured
CC1(C)CO[C@@H](CC(=O)O)CN1 [SCH-50911] |  |  | effect on reduced EtOH consumption of RGS6−/− mice [1]: partially reversed the reduction in alcohol consumption
O=c1c(-c2cc(O)c(O)c(O)c2)coc2cc(O)c(O)c(O)c12 [UI1956] | 42 µM |  | 
c1ccc2c(c1)[I+]c1ccccc1-2 [DPI, diphenyleneiodonium] |  |  | alcohol-induced ROS generation in VCM [3]: significantly reduced ROS generation in WT but not RGS6^−/− VCM
NCC(CC(=O)O)c1ccc(Cl)cc1 (centres unmarked) [baclofen] |  |  | sedative effect in RGS6−/− mice [4]: remarkably sensitized to the sedative effects
Oc1ccc2c(c1)OCC1(O)Cc3cc(O)c(O)cc3C21 (centres unmarked) [UI1910] | 17 µM | 30 fold | 
O=C1C=C2C[C@@]3(O)COc4cc(O)ccc4C3=C2C=C1O [UI1935] | 49 µM | 5 fold | 
